Results: patent US20090233999A1, “COMPOSITIONS AND THERAPEUTIC METHODS INVOLVING ISOFLAVONES AND ANALOGUES THEREOF” (NOVOGEN RESEARCH PTY LTD, priority 1999, published 2009)

Assays:
A7r5 = experiment: Proliferation of rat aortic smooth muscle cell line A7r5; format: cell-based; settings: A7R5, 72 h, three days, read-out: VSMC proliferation - IC50 (μM), A7r5
Method: (§1) Human umbilical vein smooth muscle cells (HUVSMC), tissue explants from a neonate (HRI— passage 2), were seeded into 96 well plates at 1×10^3 cells per well, and allowed to attach for 24 hours. They were then washed twice and incubated in medium without FBS for 24-48 hours to serum-starve them. Test compounds were prepared in medium without FBS and added to the plates and incubated for one hour. Medium with FBS was added to give a final concentration of 10% and the plates incubated for 5 days until the controls were just confluent. Final analogue concentration was therefore either a series from 150 μM to 1.2 μM, or single concentrations of 10 μM. The difference in absorbance between treated cells and untreated cells was calculated using the formula, test/control*100, to obtain the percentage change caused by the test compound. As well, an IC50 for each compound was calculated.
The effect of test compounds a rat aortic smooth muscle cell line (A7r5) and another cell line from the media of rat aorta (A10) was examined. The methodology was the same as for HUVSMC, except that the cells were treated with compound for three days.

5-LO (LTB4 synthesis) = experiment: Synthesis of LTB4 and metabolites by neutrophils (lipoxygenase); format: cell-based; settings: Neutrophil; calcium ionophore-stimulated human neutrophils
Method: The pathway for LTB4 synthesis involves initial release of AA from phospholipids by a Ca-dependent PLA2. The free AA is then oxygenated at by 5-LO (requiring enzyme activation by FLAP) to generate an epoxide intermediate (LTA4). LTA4 is then converted to LTB4 by LTA4 hydrolase. LTB4 is metabolised (and deactivated) by a cytochrome P-(CYP) 450 […] to produce 20-hydroxy and 20-carboxy metabolites. These metabolites are also measured in the HPLC assay.
Neutrophils were isolated from citrated human venous blood to >90% purity by centrifugation through Ficoll, dextran sedimentation and lysis of erythrocytes. Cells were washed in HEPES buffered Hanks solution (HBHS) and then suspended at 4.5 million cells/mL in HBHS containing 0.1% bovine serum albumin (HBHS+BSA).
Experiments had been carried out previously to optimise the stimulation of neutrophils by calcium ionophore. At 37° C., cells were incubated with the test compound in 10 μL DMSO for 5 min before addition of 100 μL of 25 ng/μL calcium ionophore (free acid form, Sigma) with 0.5% DMSO in HBHS+BSA. The cells were incubated for 10 min then pelleted by centrifugation at 4° C. for 5 min and the cell free supernatant used to quantitate the levels of LTB4 and its metabolites.
To each 900 μL aliquot of the supernatant, 25 μL of prostaglandin B2 (PGB2) 2.5 ng/μL in ethanol was added as internal standard. The solution was acidified to pH≦3 with 2M formic acid and the mixture extracted with 2 mL ethyl acetate and vigorous vortexing. The organic layer was collected and dried under nitrogen in a glass vial before reconstituted in 50 μL of the reconstitution solution (water:methanol:acetonitrile at 2:1:1).
Analysis was carried out using an HPLC system with a 125-4 LiChrospher®100 RP-18 (5 μm) column (Agilent Technologies) and a gradient system adapted from a published method to separate LTB4, its oxidation products 20-hydroxy LTB4 (20-OH-LTB4) and 20-carboxy LTB4 (20-COOH-LTB4), as well as PGB2. At 1 ml/min flow rate, a combination of three different mobile phase solutions was used:
A (water:methanol:acetonitrile:trifluoroacetic acid at 80:40:40:0.1, pH=3 with Et3N), B (methanol:acetonitrile at 1:1), and C (methanol).
UV absorbance was monitored at 270 nm, and LTB4 and its metabolites were quantitated by comparison of peak areas with that of internal standard and a standard curve prepared earlier.

HUVSMC = experiment: Proliferation of human umbilical vein smooth muscle cells; format: cell-based; settings: VSMC, 120 h, 5 days
Method: as §1

TNFα = TNFα production by murine splenocytes; format: cell-based, mouse; settings: 10 μM; LPS
Method: Male Skh-1 (hairless) mice, approximately six weeks old were killed by cervical dislocation. Single cell suspensions were made from the spleen and erythrocytes were lysed in buffer (0.14M NH4Cl, 17 mM Tris, pH 7.2). The remaining splenocytes were cultured in RPMI-1640 (Gibco) supplemented with 10% (v:v) FBS, 2 mM L-glutamine, pen/strep and 50 μM 2-mercaptoethanol. Splenocytes were added to quadruplicate wells containing either the T cell mitogen concanavalin A (Con A, Sigma-Aldrich—0. 4 μg/well), the B-cell mitogen LPS (Sigma-Aldrich—1 μg/well) or no mitogen, as well as test compound at a concentration of 10 μM in DMSO. Samples were analysed after a 3 day incubation at 37° C. in 5% CO2 in air. Cell viability was assessed by adding MTT to each well, incubating for a further 4 hrs and then developing colour with 0.04N HCl in isopropanol. Supernatant samples were frozen at −80° C. and IL-6, IFN-γ and TNFα were detected in triplicate using ELISA kits (BD Biosciences).

rat aortic ring = experiment: Rat aortic ring assay, contractile response to noradrenaline; settings: 1 μg/ml
Method: The vasodilatory capacity was examined ex vivo using the rat aortic ring assay.
Male Sprague-Dawley rats (250±50 g) were euthanased with 80% CO2 and 20% O2. The thoracic aorta was excised and quickly mounted in organ-baths as described. Full concentration-contractile curves were obtained to noradrenaline (0.1 nM-[…]) with and without test compounds delivered at a concentration of 1 μg/ml. Experiments were repeated in n=5 different rings from 5 different animals. Only one compound at any one concentration was tested on any one ring from any one animal. Sigmoidal dose response curves were fitted for the data and the logEC50 and the Ema, calculated (Prism 4, GraphPad Software). The difference in these values between the presence and absence of test compound was calculated using a two-tailed paired t test. The effects of β-oestrodiol and vehicle alone were examined as a positive and negative control respectively.

IC50 (5-LO (LTB4 synthesis)) [µM]	SMILES	IC50 (A7r5) [µM]	IC50 (HUVSMC) [µM]	TNFα synthesis by B cells (TNFα)	contractile response (logEC50) of the aortic ring to noradrenaline (rat aortic ring)	strength of the contractile response (Emax) (rat aortic ring)
< 0.1	Cc1c(O)ccc2c1OCC(c1cccc(O)c1)=C2 [Cpd. 14, 3′,7-Dihydroxy-8-methylisoflav-3-ene]	33	64	induced		
0.3	COc1ccc(C2=Cc3ccc(O)c(C)c3OC2)cc1OC [Cpd. 19, 7-Hydroxy-3′,4′-dimethoxy-8-methylisoflav-3-ene]		34	inhibited		
0.9	Oc1ccc(C2=Cc3ccc(O)c(Br)c3OC2)cc1 [Cpd. 20, 4′,7-Dihydroxy-8-bromoisoflav-3-ene]	33	32	induced	significantly inhibited	reduced

More lines, now with the values behind:

SMILES	IC50 (5-LO (LTB4 synthesis)) [µM]	IC50 (A7r5) [µM]	IC50 (HUVSMC) [µM]	TNFα synthesis by B cells (TNFα)	contractile response (logEC50) of the aortic ring to noradrenaline (rat aortic ring)	strength of the contractile response (Emax) (rat aortic ring)
COc1cccc(C2=Cc3ccc(O)cc3OC2)c1 [Cpd. 16, 7-Hydroxy-3′-methoxyisoflav-3-ene]	2.2	48	63	induced		
COc1ccc(C2=Cc3ccc(O)cc3OC2)cc1OC [Cpd. 18, 7-Hydroxy-3′,4′-dimethoxyisoflav-3-ene]	0.5	74	140		inhibited	
Oc1ccc2c(c1)OCC(c1ccc(Br)cc1)=C2 [Cpd. 21, 4′-Bromo-7-hydroxyisoflav-3-ene]			8	induced	inhibited	
